Counter-ions that a name gives are not always drawn. Like-named read-outs stand apart in the source and are kept apart here.
How the values were obtained:
TMV = type: in vivo, tobacco mosaic virus
Experimental: The SA/SAG valves are given in micrograms per gram fresh weight of leaf tissue and represent averages of values from 3-6 treated plants at 6 days past injection. […] For determination of reduction in lesion size, longitudinal halves of 2 leaves on 3-6 plants were injection with chemicals, and six days later the entire leaf was infected with TMV. Twenty lesions were measured on each half of the leaf seven days post infection; the values given represent the average percent reduction in lesion diameter in the treated leaf half compared to the untreated half.

[1] = test system: salicylic acid binding protein; experiment: Binding of 14C-labelled ligands by partially purified SABP; set-up: species or system tobacco; conditions: for [14C] radioactivity bound, with protein / [14C] radioactivity bound, without protein: 50 μM ligand, n = 3, SD; for [14C] radioactivity bound, with protein: 3 mg/ml partially purified SABP; for [14C] radioactivity bound, without protein: no protein
Experimental: Binding was assayed with 3 mg/ml of the
(§1) A key element during the characterization and the purification process is a simple, inexpensive, sensitive and reliable method for determining the salicylic acid binding activity. For this purpose, spin-column exclusion chromatography was used to separate the bound [^14 C] salicylic acid (excluded) from the bulk free salicylic acid (included). Specifically, a 1.5 ml Eppendorf tube was punctured at the tip with a 20-gauge needle and a small amount of glass wool was added to cover the small hole. The tube was then filled with Bio-Gel P-6DG desalting gel (exclusion limit 6 KDa; purchased from Bio-Rad, Melville, N.Y.) which have been swollen in water. An alternative gel is Sephadex G-25 fine (from Pharmacia, Piscataway, N.J.). Excess liquid in the gel was removed and centrifuged for 5 minutes at full speed in a Dynamic centrifuge (Becton Dickinson). The process was then repeated several times until the gel filled the tube. After incubation of an aliquot of the extract or column fractions for 2 hr at 4° C. with 5 μM-20 μM [^14 C salicylic acid] (specifically radioactivity 55 Ci/mol; purchased from New England Nuclear), 150 μl of proteins binding sample was loaded onto the tube column, which was then rapidly centrifuged for 2 minutes at full speed and the solution of proteins and bound [^14 C-salicylic acid] that was excluded from the gel was collected into another tube that had been placed under the tube column during the centrifugation. One hundred microliters of this solution was then used to determine the amount of bound salicylic acid. With this binding assay, characterization of the salicylic acid binding protein can be carried out very rapidly. For example, to determine the inhibitory effect of various salicylic acid analogues on salicylic acid binding activity, these individual analogues were included in the binding mixture containing both the protein and [^14 C] salicylic acid during the 2 hr incubation, and resulting binding activity was determined in comparison to the activity in the absence of these analogues. Likewise, to determine the effect of pH and antioxidants on the binding activity the protein sample was either dialyzed against a large volume of buffers with different pH or antioxidants were added to the protein sample to various concentrations and the resulting binding activities were then determined with the spin-column method in comparison with the activity determined in the absence of these treatments.

[2] = test system: salicylic acid binding protein; experiment: Competitive [14C] salicylic acid binding assay (spin-column); set-up: species or system tobacco; conditions: [14C] salicylic acid 20 μM; for Inhibition (%) 2×: 40 μM (2×) unlabeled competitor; for Inhibition (%) 10×: 200 μM (10×) unlabeled competitor
Experimental: The 180 kDa native binding protein isolated was tested for binding affinity and specificity. A competitive assay was established using salicylic acid binding protein fractionated from plants as previously described.
as §1, with “With this binding assay, characterization of the salicylic acid binding protein can be carried out very rapidly.” left out

[3] = target: T1, catalase activity of SABP (Nicotiana tabacum, UniProt P49319); experiment: Catalase activity of highly purified SABP (luminol method); type: biochemical, tobacco; conditions: for inhibition at 1000 µM: 0.05 h, 1 mM SA or analogue, 1 mM H2O2, 500 ng highly purified SABP; for Inhibition of the catalase activity of SABP (in words): compared with SA
T1 sequence (P49319 1-492): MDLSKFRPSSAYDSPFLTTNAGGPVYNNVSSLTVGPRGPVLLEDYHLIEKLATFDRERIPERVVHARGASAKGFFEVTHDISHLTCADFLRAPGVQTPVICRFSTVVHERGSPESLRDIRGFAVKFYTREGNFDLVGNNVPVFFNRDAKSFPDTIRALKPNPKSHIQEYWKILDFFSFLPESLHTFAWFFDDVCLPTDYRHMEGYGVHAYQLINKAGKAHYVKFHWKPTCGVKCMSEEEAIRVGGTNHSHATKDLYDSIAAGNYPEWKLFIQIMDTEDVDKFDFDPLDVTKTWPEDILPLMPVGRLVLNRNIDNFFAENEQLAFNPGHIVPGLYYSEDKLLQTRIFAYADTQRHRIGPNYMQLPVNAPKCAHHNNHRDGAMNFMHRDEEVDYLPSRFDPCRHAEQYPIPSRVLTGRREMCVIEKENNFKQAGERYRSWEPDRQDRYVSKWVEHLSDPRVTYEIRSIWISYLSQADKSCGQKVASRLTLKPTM
Experimental: Aliquots (50 μl) were removed from the assay mixture at 30 second intervals to assay for amount of H2 O2 remaining using the luminol method as has been described by Warm and Laties, Phytochem. […] The tube was placed in the measuring chamber and assay was initiated with automatic injection into the mixture of 100 μl of 0.5 mM K3 Fe(CN)6 in 0.2N NH4 OH, pH 9.5. Measurements were integrated over 5 second periods. H2 O2 was calculated from the standard curve constructed with known amounts of H2 O2. Rate constants of SABP catalase activity in the presence or absence of SA or its analogues were then calculated based on a first-order mechanism.

[4] = test system: resistance or PR gene expression; set-up: key: ++: indicates a high level of biological activity; +: indicates a lower level of biological activity; ±: indicates low, but detectable biological activity in some assays; -: indicates no biological activity; conditions: Table 3; values reported in literature; cited from earlier work
SABP = test system: SABP; set-up: concentration or dose not given beside the values; conditions: Table 6; previously published data (Chen et al. 1993); cited from earlier work
ascorbate peroxidase = experiment: Ascorbate peroxidase activity in tobacco leaf extracts; type: biochemical, Nicotiana tabacum cv. Xanthi nc; conditions: 200 μM compound, corrected for quenching of auto oxidation
Experimental: […] Two grams of leaves from 6-8 week old tobacco plants (Nicotiana tabacum cv. Xanthi nc) grown at 22° C. in a 14 hr light cycle were homogenized under liquid nitrogen using a pestle and mortar.
To obtain ascorbate peroxidase-containing extracts, the soluble proteins were extracted by grinding the powder in 10 ml of 100 mM potassium phosphate, pH 7, containing […] ascorbate and 1% (weight/volume) polyvinylpyrrolidone, with a small amount of quartz sand. The homogenate was centrifuged at 14,000 g for 5 min. […] The pellet resulting from centrifugation (14,000 g, 15 min.) was resuspended in extraction buffer (100 mM potassium phosphate, pH7, containing 0.25 mM ascorbate and 1% (weight/volume) polyvinylpyrrolidone) and desalted on a PD-10 column (Pharmacia) equilibrated with 50 mM potassium phosphate, pH 7, containing 100 μM ascorbate. The extract was used immediately. […] The amount of protein per assay was 30-50 μg. Oxidation of ascorbate was followed by the decrease in the absorbance at 290 nm.
The values illustrated in FIG. 17 are the mean values for three replicated assays.

Compound | Inhibition (%) 2× [2] [%] | Inhibition (%) 10× [2] [%] | inhibition at 1000 µM [3] [%] | Biological activity [4] | Inhibition (%) [14C]SA binding (SABP) [%] | also measured
CCC(N)C(=O)O (stereo not drawn) [α-amino butyric acid] |  |  |  |  |  | Reduction in lesion size (%) (TMV; TMV infection six days after injection, lesions measured seven days post infection, treated vs untreated leaf half): 63%
Cc1ncc(C[n+]2csc(CCO)c2C)c(N)n1 [thiamine-HCl] |  |  |  |  |  | Reduction in lesion size (%) (TMV; in vivo): 71%
[Acetyl-^14 C] acetylsalicylic acid |  |  |  |  |  | [14C] radioactivity bound, with protein [1]: 96 ± 10 dpm/100 μl; [14C] radioactivity bound, without protein [1]: 104 ± 9 dpm/100 μl
O=C(O)c1cc(O)ccc1O [2,5-Dihydroxybenzoic acid] | 1 | -1 | 3.2 | - | 1 | 
CC(=O)Oc1ccccc1[14C](=O)O [[carboxyl-^14 C] acetylsalicylic acid] |  |  |  |  |  | [14C] radioactivity bound, with protein [1]: 397 ± 25 dpm/100 μl; [14C] radioactivity bound, without protein [1]: 112 ± 10 dpm/100 μl
O=C(O)[14c]1ccccc1O [[^14 C] salicylic acid] |  |  |  |  |  | [14C] radioactivity bound, with protein [1]: 989 ± 78 dpm/100 μl; [14C] radioactivity bound, without protein [1]: 89 ± 7 dpm/100 μl
O=C(O)c1c(O)cccc1O [2,6-Dihydroxybenzoic acid] | 51 | 91 | 91.3 | ++ | 92 | Inhibition of the catalase activity of SABP (in words) [3]: somewhat stronger; % Inhibition of ascorbate peroxidase (ascorbate peroxidase): 72 ± 8%
[Ba+2].[Cl-].[Cl-] [BaCl2, barium chloride] |  |  |  |  |  | Reduction in lesion size (%) (TMV; in vivo): 60%
CC(=O)Oc1ccccc1C(=O)O [Acetylsalicylic acid] | 25 | 57 | 53.6 | ++ | 48 | Binding by the salicylic acid binding protein ([1]; conclusion from Table 4): not actually bound; Inhibition of the catalase activity of SABP (in words) [3]: weaker than SA
O=C(O)c1ccc(O)cc1 [4-Hydroxybenzoic acid] | 1 | -2 | 4.1 | - | -2 | % Inhibition of ascorbate peroxidase (ascorbate peroxidase): 0 ± 6%
O=C(O)c1ccc(O)c(O)c1 [3,4-Dihydroxybenzoic acid] |  |  | 5.1 |  | 0 | 
O=C(O)c1ccc(O)cc1O [2,4-Dihydroxybenzoic acid] | -1 | -2 | 5.2 | - | -4 | 
O=C(O)c1cccc(O)c1O [2,3-Dihydroxybenzoic acid] | 1 | 10 | 15.3 | ± | 9 | Inhibition of the catalase activity of SABP (in words) [3]: poor inhibitor
